Data taken from the NIST ThermoML archive (doi:10.1016/j.fluid.2007.03.013).
± gives the expanded uncertainty stated by the source.

Test: refractive index (Na D-line) (dimensionless)
Settings: 293.1 K; 101.33 kPa; Liquid; Standard Abbe refractometry

O=CN1CCOCC1 [N-formylmorpholine]
refractive index: 1.484 ± 0.0007

CC1CCCCC1 [methylcyclohexane]
refractive index: 1.423 ± 0.0007
